Data as given in patent US10227298B2, “Solid forms of a pharmaceutically active compound” (Hoffmann-La Roche Inc., priority 2014, dated 2019).

Assay: aqueous solubility of the crystalline forms
Format: physicochemical
Details: pH 1.5, aqueous buffer, in water at physiological pHs (pH1.5-8.0)

- solubility: < 0.05 µg/mL
SMILES: COc1cc(C(=O)O)ccc1NC(=O)[C@@H]1N[C@@H](CC(C)(C)C)[C@](C#N)(c2ccc(Cl)cc2F)[C@H]1c1cccc(Cl)c1F [Compound A, 4-{[(2R,3S,4R,5S)-4-(4-Chloro-2-fluoro-phenyl)-3-(3-chloro-2-fluoro-phenyl)-4-cyano-5-(2,2-dimethyl-propyl)-pyrrolidine-2-carbonyl]-amino}-3-methoxy-benzoic acid]
